Consider 7 compounds from patent US8563545B2, “Compound useful for the treatment of degenerative and inflammatory diseases” (Galapagos NV, priority 2009, dated 2013).

“And” between values parts separate entries of the source, which are not always exact repeats. Identical values can stand only once.

Assay [1] has as its target JAK2 (Homo sapiens (Human), UniProt O60674). Briefly: JAK2 inhibition assay. It is filed as biochemical. As to the method: After 90 min at 30° C., reactions were stopped by adding of 25 μL/well of 150 mM phosphoric acid. […] Plates were washed 6 times with 300 μL per well of a 75 mM phosphoric acid solution and the bottom of the plates was sealed. 40 μL/well of Microscint-20 was added, the top of the plates was sealed and readout was performed using the Topcount (Perkin Elmer). Kinase activity was calculated by subtracting counts per minute (cpm) obtained in the presence of a positive control inhibitor (10 μM staurosporine) from cpm obtained in the presence of vehicle. The ability of a test compound to inhibit this activity was determined as:
(§1) Percentage inhibition=((cpm determined for sample with test compound present−cpm determined for sample with positive control inhibitor)divided by(cpm determined in the presence of vehicle−cpm determined for sample with positive control inhibitor))*100.
Dose dilution series were prepared for the compounds enabling the testing of dose-response effects in the JAK2 assay and the calculation of the IC50 for each compound.

In assay [2] the target is JAK1 (Homo sapiens (Human), UniProt P23458). Briefly: JAK1 inhibition assay. It is filed as biochemical. As to the method:
Plates were washed 6 times with 300 μL per well of a 75 mM phosphoric acid solution and the bottom of the plates was sealed. 40 μL/well of Microscint-20 was added, the top of the plates was sealed and readout was performed using the Topcount (Perkin Elmer). Kinase activity was calculated by subtracting counts per minute (cpm) obtained in the presence of a positive control inhibitor (10 μM staurosporine) from cpm obtained in the presence of vehicle. The ability of a test compound to inhibit this activity was determined as:
as §1
Dose dilution series were prepared for the compounds enabling the testing of dose-response effects in the JAK1 assay and the calculation of the IC50 for each compound.

Chain of JAK2 (O60674 808-1132): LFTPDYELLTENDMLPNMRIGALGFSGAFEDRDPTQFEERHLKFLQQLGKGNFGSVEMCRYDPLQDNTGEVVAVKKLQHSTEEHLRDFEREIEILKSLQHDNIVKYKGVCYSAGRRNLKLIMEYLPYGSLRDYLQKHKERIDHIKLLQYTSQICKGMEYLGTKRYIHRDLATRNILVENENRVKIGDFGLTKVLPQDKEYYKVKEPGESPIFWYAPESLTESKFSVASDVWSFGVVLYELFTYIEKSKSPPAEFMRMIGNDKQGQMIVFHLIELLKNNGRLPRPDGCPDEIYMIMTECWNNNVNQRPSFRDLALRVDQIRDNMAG
Chain of JAK1 (P23458 850-1154): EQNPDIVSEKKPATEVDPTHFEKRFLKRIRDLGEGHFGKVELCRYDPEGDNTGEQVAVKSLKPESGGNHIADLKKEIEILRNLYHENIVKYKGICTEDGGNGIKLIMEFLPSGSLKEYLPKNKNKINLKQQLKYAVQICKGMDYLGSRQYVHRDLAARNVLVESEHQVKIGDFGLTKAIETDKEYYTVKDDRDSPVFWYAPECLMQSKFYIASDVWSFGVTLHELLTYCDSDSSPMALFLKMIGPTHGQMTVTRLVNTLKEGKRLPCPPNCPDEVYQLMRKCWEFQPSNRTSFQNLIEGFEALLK

In general, IC50 refers to the concentration at which inhibition is half-maximal. Higher therefore signals weaker potency in that assay. On to `CC(=O)N1CCN(Cc2ccc(-c3cccc4nc(NC(=O)C5CC5)nn34)cc2)CC1` [Compound 9, N-(5-(4-((4-acetoylpiperazin-1-yl)methyl)phenyl)-[1,2,4]triazolo[1,5-a]pyridin-2-yl)cyclopropanecarboxamide], for which the IC50 came out at 849 nM in assay [1] and 334 nM in assay [2].
On to `O=C(Nc1nc2cccc(-c3ccc(N4CCOCC4)nc3)n2n1)C1CC1` [Compound 4, N-(5-(6-morpholinopyridin-3-yl)-[1,2,4]triazolo[1,5-a]pyridin-2-yl)cyclopropanecarboxamide], for which half-maximal inhibition in assay [2] (IC50) required 1030 nM.
In the case of `O=C(Nc1nc2cccc(-c3ccc(CN4CCCCC4)cc3)n2n1)C1CC1` [Compound 7, N-(5-(4-(piperidin-1-ylmethyl)phenyl)-[1,2,4]triazolo[1,5-a]pyridin-2-yl)cyclopropanecarboxamide], the IC50 is 6450 nM in assay [1] and 504 nM in assay [2].
Turning to `O=C(Nc1nc2cccc(-c3cccc(CN4CCOCC4)c3)n2n1)C1CC1` [Compound 3, N-(5-(3-(morpholinomethyl)phenyl)-[1,2,4]triazolo[1,5-a]pyridin-2-yl)cyclopropanecarboxamide], half-maximal inhibition in assay [2] (IC50) was put at 291 nM.
For `O=C(Nc1nc2cccc(-c3ccc(N4CCOCC4)cc3)n2n1)C1CC1` [Compound 5, N-(5-(4-morpholinophenyl)-[1,2,4]triazolo[1,5-a]pyridin-2-yl)cyclopropanecarboxamide], the half-maximal inhibitory concentration (IC50) in assay [1] was found to be 1760 nM; in assay [2], 1450 nM.
Turning to `NC(=O)C1CCN(Cc2ccc(-c3cccc4nc(NC(=O)C5CC5)nn34)cc2)CC1` [Compound 8], the IC50 in assay [1] was 7730 nM and 1360 nM; in assay [2], 435 nM.
In the case of `CN1CCN(Cc2ccc(-c3cccc4nc(NC(=O)C5CC5)nn34)cc2)CC1` [Compound 6, N-(5-(4-((4-methylpiperazin-1-yl)methyl)phenyl)-[1,2,4]triazolo [1,5-a]pyridin-2-yl) cyclopropanecarboxamide], the IC50 was determined as 5070 nM in assay [1] and 3450 nM in assay [2].
